# Assay results taken from patent US20260209789A1, “TRIGGER-INDUCIBLE MRNA CIRCULARIZATION” (WESTLAKE UNIVERSITY, priority 2022, published 2026).
# Tests used:
# [1] = tested on: STIF-specific target gene mRNA; assay: Translational regulation by constitutive bipartite STIF reconstitution (SEAP, NanoLuc) in HEK-293 cells; type: cell-based, human; conditions: 48 h
# Source text: FIG. 8. Translational regulation by spontaneous assembly of bipartite STIFs. (A) Translational regulation through constitutive STIF reconstitution. […] Transfection of pcDNA3.1 (+) instead of NSP3-fusion proteins was used as a negative control. […] (B) Compatibility of STIF-mediated translational regulation with split-complementation approaches. […] For (−) conditions, pcDNA3.1 (+) was transfected instead of expression vectors.
# FIG. 9. Translational regulation through constitutive Coh2/DocS-mediated STIF reconstitution. (A) Site-specific translational activation by eIFBP overexpression. HEK-293 cells were (co-) transfected with an expression vector for SEAP-mRNA containing 24 tandem C/D-box-(left panel, pSL355) or MS2-box repeats in the 3′-UTR (right panel, pSL468), constitutive expression vectors for L7Ae (left) or MCP (right) fused to Coh2 (L7Ae-Coh2, pSL83; MCP-Coh2, pSL674) or EGFP (L7Ae-EGFP, pSL1078; MCP-EGFP, pSL435) and constitutive expression vectors for various chimeric Coh2-specific DocS-containing eIFBP fusions (PABP-DocS, pSL47; DocS-eIF4G, pSL87; DocS-eIF4E, pLZ312; DocS-NSP3, pSL66; DocS-VPg, pLZ311). Transfection of pcDNA3.1 (+) instead of DocS- or MCP-expressing vectors was used as a negative control. […] SEAP (left) and NanoLuc levels in culture supernatants (right) were quantified at 48 h post-transfection. […]
# [2] = tested on: GNCR: NS3a system; assay: Grazoprevir-inducible SEAP translation in HEK-293 cells (fold-change, dose-dependence, kinetics vs transcriptional switch); conditions: three tandem GNCR and NS3a repeats
# Source text: Optimization of an L7Ae-based grazoprevir-inducible gene switch. (A) Translational regulation by grazoprevir-dependent STIF association. […] (B) Translational regulation by different grazoprevir-dependent NSP3-fusion proteins. […] (C) Translational regulation by different grazoprevir-dependent L7Ae-fusion proteins.
# Optimized L7Ae- and MCP-based grazoprevir-inducible gene switch in mammalian cells. (A) Optimized grazoprevir-inducible regulation of SEAP translation. […] (B, C) Dose-dependent grazoprevir-inducible SEAP expression.
# Comparative analysis of gene switches based on STIF-based translation and state-of-the-art transcription-centered designs. (A) Kinetics of grazoprevir-inducible SEAP expression. […] (B) Endpoint performance of grazoprevir-induced translational and transcriptional gene switch switches.
# [3] = tested on: MAPK signaling (phosphorylated ERK2); assay: Phosphorylation-dependent STIF reconstitution sensor (pE59/ERK2), NanoLuc/FLuc; type: cell-based; conditions: 100 ng/mL recombinant human EGF, 48 h
# Source text: FIG. 11. Genetically encoded signalling-specific sensors employing phosphorylation-dependent STIF reconstitution. (A) L7Ae-based STIFs. […] For (−) conditions, pcDNA3.1 (+) was transfected instead of expression vectors. Data presented are mean±SD of relative luciferase activity (NanoLuc/FLuc), n=3 individual experiments. (B) MCP-based STIFs. […] For (−) conditions, pcDNA3.1 (+) was transfected instead of expression vectors. Data presented are mean±SD of relative luciferase activity (NanoLuc/FLuc), n=3 individual experiments.
# Translational regulation by trigger-inducible STIF systems can also be engineered in various other ways. […] In this configuration, HEK-293 cells were transfected with an expression vector for SEAP-mRNA containing 16 tandem MS2-box repeats in the 3′-UTR (SEQ-ID NO: 138) and constitutive expression vectors for MCP-LaM8AK47 (SEQ-ID NO: 241) and mCherry-NSP3 (SEQ-ID NO: 250). […] In the future, engineering of similar sensors for other signalling pathways can be readily achieved by exchanging the pE59 (SEQ-ID NO: 110) and ERK2 (SEQ-ID NO: 85) domains by other signalling specific PPI systems. […]
# [4] = Treatment of type-1 diabetes by oral grazoprevir-inducible insulin expression; conditions: T1D mice with grazoprevir-inducible insulin gene therapy, oral 3 mg/kg
# [5] = Grazoprevir-inducible SEAP production in mice (hydrodynamic tail vein injection); conditions: C57BL/6 mice, hydrodynamically injected gene switch, 3 daily administrations, 24 h after first
# [6] = target: T1, (DocS)3 (Acetivibrio thermocellus, UniProt A3DH67); assay: Coh2/DocS-based STIF protein sensor for cytosolic (DocS)3; conditions: different amounts of pSL244, 48 h
# T1 sequence (A3DH67 with tags, fused parts or gaps): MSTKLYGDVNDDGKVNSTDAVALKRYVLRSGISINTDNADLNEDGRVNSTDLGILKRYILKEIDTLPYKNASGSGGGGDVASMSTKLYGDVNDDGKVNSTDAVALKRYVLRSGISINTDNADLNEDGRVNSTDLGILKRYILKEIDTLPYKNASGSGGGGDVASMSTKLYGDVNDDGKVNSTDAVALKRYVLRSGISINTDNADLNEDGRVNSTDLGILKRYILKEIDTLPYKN
# [7] = tested on: STIF-specific target gene mRNA; assay: STIF-mediated translation of reporter mRNA (SEAP, FLuc, EGFP) in HEK-293 cells; type: cell-based, human; conditions: 48 h; for induction folds between basal and activated states (SEAP): HHR-mediated poly (A)-removal, 24 aptamer repeats
# Source text: FIG. 2. Design and validation of different STIF constructs consisting of RNA-binding protein (RBPs) fused to different eIF4F-binding moieties (eIFBP). (A) Synthetic translation initiation factors (STIFs)-mediated translation of L7Ae-specific SEAP-mRNA with shRNA-216-cleavable poly (A). […] (B) STIF-mediated translation of MCP-specific SEAP-mRNA with shRNA-216-cleavable poly (A). […] (C) Correlation between C/D-box-based aptamer region size and STIF-mediated SEAP expression. HEK-293 cells were co-transfected with SEAP expression vectors containing different tandem repeats of the L7Ae-specific C/D-box aptamer ((C/D-box)8, pSL31; (C/D-box)12, pSL81; (C/D-box)16, pSL80; (C/D-box)24, pSL88), an shRNA-216 expression vector (pSL4) and an expression vector for either PABP-L7Ae (ON; pLZ16) or a Coh2-L7Ae protein incapable of binding eIF4F (OFF; pSL44). […] Data presented are mean±SD, n=4 individual experiments. (D) Correlation between MS2-box-based aptamer region size and STIF-mediated SEAP expression. HEK-293 cells were transfected with SEAP expression vectors containing different tandem repeats of the MCP-specific MS2-box aptamer ((MS2-box)8, pSL515; (MS2-box)12, pSL1284; (MS2-box)16, pSL516; (MS2-box)24, pSL468) and constitutive expression vectors for either MCP-NSP3 (ON; pSL95) or an MCP-Coh2 protein incapable of binding eIF4F (OFF; pSL674). […] Data presented are mean±SD, n=4 individual experiments.
# FIG. 5. Translational regulation of SEAP-, Firefly Luciferase and EGFP-mRNA with self-cleavable poly (A). (A) STIF-mediated translation of L7Ae-specific SEAP-mRNA with HHR-cleavable poly (A). […] (B) STIF-mediated translation of MCP-specific SEAP-mRNA with HHR-cleavable poly (A). […] (C, D) STIF-mediated regulation at the protein level of gene expression.
# [8] = 20 h after first administration
compound,measurement,setting,value
MCP-Coh2: bipartite STIF regulator,target gene translation by spontaneous STIF assembly (SEAP),[1],modular and effective translational regulation
L7Ae-(NS3a)3: trigger-inducible STIF regulator,"regulation performance (fold-change, dose-dependence, activation kinetics)",[2],best regulation performance
"EGF: Animal-free recombinant human EGF (NSDSECPLSHDGYCLHDGVCMYIEALDKYACNCVVGYIGERCQYRDLKWWELR; Epidermal growth factor; UniProt P01133 971-1023, looked up)",reporter levels (NanoLuc/FLuc) vs MAPK activity,[3],increases in reporter levels correlate with increased MAPK activity
C=C[C@@H]1C[C@]1(NC(=O)[C@@H]1C[C@@H]2CN1C(=O)[C@H](C(C)(C)C)NC(=O)O[C@@H]1C[C@H]1CCCCCc1nc3ccc(OC)cc3nc1O2)C(=O)NS(=O)(=O)C1CC1.O [grazoprevir],correction of hyperglycemia (fasting glycemia),[4]; [8],almost complete correction
same,correction of insulin deficiency (blood insulin levels),[4]; [8],almost complete correction
same,correction of glucose intolerance (intraperitoneal GTT),[4]; 24 h after first administration,almost complete correction
same,oral dose sufficient to fully activate the system (SEAP levels in the bloodstream),[5],3 mg/kg
MCP-(NS3a)3: trigger-inducible STIF regulator,"regulation performance (fold-change, dose-dependence, activation kinetics)",[2],best regulation performance
MCP-(Coh2)3: bipartite STIF regulator,detection of cytosolic (DocS)3 (SEAP),[6],in a dose-dependent manner
MCP-NSP3: STIF fusion protein,induction folds between basal and activated states (SEAP),[7],highest induction folds
same,"regulation of other reporter genes (FLuc, EGFP)",[7]; MCP-specific poly (A)-surrogate,could also regulate a variety of other reporter genes
L7Ae-NSP3: STIF fusion protein,induction folds between basal and activated states (SEAP),[7],highest induction folds
